Reference: ChEMBL document CHEMBL5113503, “Synthesis and biological evaluation of 4-(4-aminophenyl)-6-methylisoxazolo[3,4-b] pyridin-3-amine covalent inhibitors as potential agents for the treatment of acute myeloid leukemia” (Bioorg Med Chem, 2022)

Columns and labels:
[1] = system: HL-60; experiment: Antiproliferative activity against human HL-60 cells harboring wildtype FLT3 assessed as cell growth inhibition measured after 72 hrs by CCK8 assay; settings: HL-60, 72 h
[2] = system: A549; experiment: Antiproliferative activity human A549 cells assessed as cell growth inhibition measured after 72 hrs by CCK8 assay; settings: A549, 72 h
[3] = system: MV4-11; experiment: Induction of cell cycle arrest in human MV4-11 cells assessed as accumulation at G0/G1 phase at 2.5 uM measured after 24 hrs by flow cytometry (reference value: 64.29 %); type: functional
[4] = system: MV4-11; experiment: Induction of apoptosis in human MV4-11 cells assessed as necrotic cells at 2.5 uM measured after 48 hrs by Annexin V-FITC/PI double staining based flow cytometric analysis (reference value: 5.67 %); type: functional
[5] = system: MV4-11; experiment: Induction of apoptosis in human MV4-11 cells assessed as necrotic cells at 0.5 uM measured after 48 hrs by Annexin V-FITC/PI double staining based flow cytometric analysis (reference value: 5.67 %); type: functional
[6] = system: MV4-11; experiment: Induction of apoptosis in human MV4-11 cells assessed as early apoptotic cells at 0.1 uM measured after 48 hrs by Annexin V-FITC/PI double staining based flow cytometric analysis (reference value: 2.04 %); type: functional
[7] = system: MV4-11; experiment: Induction of apoptosis in human MV4-11 cells assessed as late apoptotic cells at 0.1 uM measured after 48 hrs by Annexin V-FITC/PI double staining based flow cytometric analysis (reference value: 12.03 %); type: functional
[8] = molecular target: T1, Signal transducer and activator of transcription 5A (Homo sapiens) (UniProt P42229); experiment: Inhibition of STAT5 phosphorylation in human MV4-11 cells incubated for 12 hrs by Western blot analysis; type: cell-based; settings: dose 0.1-2.5 µM, DDE = dose-dependent effect
T1 sequence (whole entry): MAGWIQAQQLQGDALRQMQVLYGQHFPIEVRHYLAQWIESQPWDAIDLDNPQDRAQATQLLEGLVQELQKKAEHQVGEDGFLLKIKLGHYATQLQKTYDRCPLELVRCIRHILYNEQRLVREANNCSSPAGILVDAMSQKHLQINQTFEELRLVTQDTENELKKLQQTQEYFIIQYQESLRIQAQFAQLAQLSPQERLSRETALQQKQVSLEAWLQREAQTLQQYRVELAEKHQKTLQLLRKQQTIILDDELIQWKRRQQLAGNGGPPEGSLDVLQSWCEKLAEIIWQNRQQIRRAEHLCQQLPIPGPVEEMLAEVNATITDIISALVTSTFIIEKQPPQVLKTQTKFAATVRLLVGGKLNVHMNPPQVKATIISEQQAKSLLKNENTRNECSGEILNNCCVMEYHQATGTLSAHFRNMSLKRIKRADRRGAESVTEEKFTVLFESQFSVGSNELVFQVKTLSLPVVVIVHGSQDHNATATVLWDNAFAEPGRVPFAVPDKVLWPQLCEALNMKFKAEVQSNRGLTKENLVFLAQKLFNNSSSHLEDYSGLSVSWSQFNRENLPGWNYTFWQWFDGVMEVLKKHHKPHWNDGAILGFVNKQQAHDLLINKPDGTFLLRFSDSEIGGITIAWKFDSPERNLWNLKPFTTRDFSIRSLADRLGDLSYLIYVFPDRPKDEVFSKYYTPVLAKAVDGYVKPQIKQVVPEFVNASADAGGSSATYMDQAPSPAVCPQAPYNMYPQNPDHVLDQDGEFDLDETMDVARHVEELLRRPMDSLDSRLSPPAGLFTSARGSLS

IC50 [1]: > 10 µM | IC50 [2]: > 10 µM | inhibition [8]: Dde
SMILES: C=CC(=O)Nc1ccc(NC(=O)Nc2ccc(-c3cc(C)nc4noc(N)c34)cc2)cc1
Activity [3]: 83% | Activity [4]: 9.56% | Activity [5]: 5.47% | Activity [6]: 1.83% | Activity [7]: 11.88%
